Assay results: publication PMC8248988, “A signal capture and proofreading mechanism for the KDEL-receptor explains selectivity and dynamic range in ER retrieval” (eLife, 2021)

Key:
Assay type in all cases: cell-based
Conditions in all cases: COS-7 cells
human KDELR1 N54R = target: T1, human KDELR1 N54R (Homo sapiens, UniProt P24390, N54R); assay: ER retrieval assay, KDELR1 N54R-GFP
T1 construct: expressed in transfected cells; host or cells: COS-7
Excerpt: (§1) To create KDELR1-GFP and KDELR2-GFP, the reading frames for Homo sapiens KDELR1 (Uniprot: P24390) and KDELR2 (Uniprot: P33947) were cloned into the pEF5/FRT low level mammalian expression vector with a C-terminal 20 amino acid linker made up of 5 copies of Gly-Ser-Ser-Ser followed by GFP. Specific point mutations were introduced using the Quickchange protocol (Stratagene) and are described in the key resources table and figures. To create the mScarlet-KDEL^sec ligand construct, mScarlet with an N-terminal hGH signal peptide and the 16 C-terminal residues of human BiP at its C-terminus, containing the KDEL signal, was cloned into the pcDNA3.1 vector. […] The Golgi marker protein TGN46 was detected by antibody (sheep anti-TGN46 AHP500G; AbD Serotec) and an Alexa 647 conjugated secondary anti-sheep secondary (A-21448, Invitrogen). In Figure 1d and e, endogenous KDELR was detected by antibody (mouse anti-KDELR ADI-VAA-PT048; Enzo Life Sciences) and Alexa 488 conjugated anti-mouse secondary antibody (A-21202, Invitrogen). For retrieval assays in other figures, KDELR-GFP fusion proteins were directly detected by fluorescence. The mScarlet-xDEL fusion proteins were directly detected by fluorescence. […] The fraction of KDEL receptor in the Golgi apparatus was calculated by dividing the Golgi signal by the total cell signal. […]

human KDELR1 E117Q = target: T2, human KDELR1 E117Q (Homo sapiens, UniProt P24390, E117Q); assay: ER retrieval assay, KDELR1 E117Q-GFP
T2 construct: expressed in transfected cells; host or cells: COS-7
T2 sequence (P24390 whole entry E117Q): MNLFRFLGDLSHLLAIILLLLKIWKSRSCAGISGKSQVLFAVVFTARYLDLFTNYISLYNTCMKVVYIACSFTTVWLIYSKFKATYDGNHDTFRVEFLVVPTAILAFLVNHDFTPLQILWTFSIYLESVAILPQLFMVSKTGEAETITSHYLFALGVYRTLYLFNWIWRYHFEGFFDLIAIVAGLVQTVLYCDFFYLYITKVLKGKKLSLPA
Excerpt: as §1

human KDELR1 D50N/N54R = target: T3, human KDELR1 D50N/N54R (Homo sapiens, UniProt P24390, D50N/N54R); assay: ER retrieval assay, KDELR1 D50N/N54R-GFP
T3 construct: expressed in transfected cells; host or cells: COS-7
T3 sequence (P24390 whole entry D50N/N54R): as the sequence (P24390 whole entry E117Q) above, with D50N, N54R, Q117E counted along it
Excerpt: as §1

T1 sequence (P24390 whole entry N54R): as the sequence (P24390 whole entry E117Q) above, with N54R, Q117E counted along it

ADEL [pcDNA3.1 hGHss-mScarlet-H. sapiens BiP639-654K651A (ADEL^SEC), secreted mScarlet fusion with human BiP C-terminus, ADEL signal]
ligand-induced receptor retrieval to the ER (in words) (human KDELR1 N54R): did not result in ADEL or DDEL recognition | ligand-induced receptor retrieval to the ER (in words) (human KDELR1 E117Q): move to the ER | ligand-induced receptor retrieval to the ER (in words) (human KDELR1 D50N/N54R): gave a response
